We go through two compounds from patent EP4748839A1 (CSPC Zhongqi Pharmaceutical Technology (Shijiazhuang) Co., …, priority 2023, dated 2025).

Data set [1] addresses T1, GLP-1R (Homo sapiens, UniProt P43220).
T1 construct: expressed in transfected cells
Briefly: GLP-1R agonistic effect in GLP1R-cAmp-Luc cells (luciferase reporter; titled 'Enzymatic assay'). It is filed as cell-based. The settings on record: for EC50: 4 hours incubation, firefly luciferin signal. The gist of the method:
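GLP1R-cAmp-Luc cells were exposed for 4 h at 37 °C to seven 5-fold dilutions starting at 125 nM final. Luciferin (150 µg/mL working) was then added for 30 min at room temperature, and the luciferase signal was read. EC50 came from the concentration–response curve.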
Background: In a reporter assay the amount or activity of a reporter protein is the signal.

In data set [2] the target is hERG channel (Homo sapiens, UniProt Q12809). Briefly: hERG test, automated patch-clamp in CHO cells stably expressing hERG. It is filed as cell-based. Conditions: hERG current inhibition, 0.37-30 µM, n = 2. The protocol: The potential inhibitory effects of the test compounds on the hERG channel were assessed using an automated patch-clamp system. In this study, the CHO cell line stably expressing the hERG gene was used, with Cisapride as the positive control.
The CHO-hERG-DUO cell line stably expressing the hERG channel was purchased from B'SYS GmbH. The cells were cultured in F12 (HAM) medium supplemented with 10%FBS, 100 U/mL penicillin-streptomycin, 100 µg/mL hygromycin, and 100 µg/mL G418. The cells were passaged three times per week and maintained at about 80% confluence.
The test compounds were dissolved in DMSO to prepare stock solutions at a final concentration of 10 mM; the stock solution was then serially diluted with DMSO in a 1: 3 ratio (3.33 mM, 1.11 mM and 0.37 mM); and the final concentrations of the test compounds were 30 µM, 10 µM, 3.33 µM, 1.11 µM and 0.37 µM.
A baseline was established using the blank vehicle. […] The hERG current was recorded for no less than 5 minutes to reach a steady state, and then 5 scans were captured. […] The experiments were performed in duplicate (n = 2) and hERG current inhibition by five concentrations of the compound were measured to determine the IC50.
The percent current inhibition was calculated using the following equation. […]
The IC50 was calculated using Graphpad Prism 8.0.
On the technique in general: hERG is a cardiac potassium channel; its block is linked to QT prolongation.

A short description of data set [3]: In vivo pharmacokinetic assay in mice. Conditions: mouse; ICR mice (female), oral gavage 10 mg/kg, plasma. The protocol:
Experimental animals: ICR mice (female, 22-25 g), purchased from Beijing Vital River Laboratory Animal Technology Co., Ltd.
Experimental procedure: ICR mice were administered the test compounds by gavage. Whole blood samples of the mice were collected at 15 min, 0.5 h, 1 h, 2 h, 4 h, 8 h and 24 h after administration and centrifuged to isolate plasma. The compound concentration was measured by LC-MS/MS, and pharmacokinetic parameters such as Area Under the Concentration-Time Curve (AUC) were calculated using Winnolin software.
Oral gavage dose: 10 mg/kg.
Measurement method: Quantitative analysis was carried out in the LC/MS/MS system after pretreatment with a protein precipitation method.

T1 sequence (P43220 24-463, species assumed): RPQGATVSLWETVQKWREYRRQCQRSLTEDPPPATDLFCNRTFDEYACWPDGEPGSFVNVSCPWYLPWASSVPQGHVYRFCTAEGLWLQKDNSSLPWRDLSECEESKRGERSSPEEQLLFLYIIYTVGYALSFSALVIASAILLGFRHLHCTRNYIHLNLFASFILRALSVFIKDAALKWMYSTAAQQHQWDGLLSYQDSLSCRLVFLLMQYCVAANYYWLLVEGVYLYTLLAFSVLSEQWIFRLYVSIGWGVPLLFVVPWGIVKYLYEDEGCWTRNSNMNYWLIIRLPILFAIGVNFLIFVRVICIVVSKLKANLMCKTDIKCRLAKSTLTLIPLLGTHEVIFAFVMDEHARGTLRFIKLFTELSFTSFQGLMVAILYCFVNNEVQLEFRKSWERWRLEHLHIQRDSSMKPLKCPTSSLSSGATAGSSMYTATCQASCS
Chain of hERG channel (Q12809 whole entry): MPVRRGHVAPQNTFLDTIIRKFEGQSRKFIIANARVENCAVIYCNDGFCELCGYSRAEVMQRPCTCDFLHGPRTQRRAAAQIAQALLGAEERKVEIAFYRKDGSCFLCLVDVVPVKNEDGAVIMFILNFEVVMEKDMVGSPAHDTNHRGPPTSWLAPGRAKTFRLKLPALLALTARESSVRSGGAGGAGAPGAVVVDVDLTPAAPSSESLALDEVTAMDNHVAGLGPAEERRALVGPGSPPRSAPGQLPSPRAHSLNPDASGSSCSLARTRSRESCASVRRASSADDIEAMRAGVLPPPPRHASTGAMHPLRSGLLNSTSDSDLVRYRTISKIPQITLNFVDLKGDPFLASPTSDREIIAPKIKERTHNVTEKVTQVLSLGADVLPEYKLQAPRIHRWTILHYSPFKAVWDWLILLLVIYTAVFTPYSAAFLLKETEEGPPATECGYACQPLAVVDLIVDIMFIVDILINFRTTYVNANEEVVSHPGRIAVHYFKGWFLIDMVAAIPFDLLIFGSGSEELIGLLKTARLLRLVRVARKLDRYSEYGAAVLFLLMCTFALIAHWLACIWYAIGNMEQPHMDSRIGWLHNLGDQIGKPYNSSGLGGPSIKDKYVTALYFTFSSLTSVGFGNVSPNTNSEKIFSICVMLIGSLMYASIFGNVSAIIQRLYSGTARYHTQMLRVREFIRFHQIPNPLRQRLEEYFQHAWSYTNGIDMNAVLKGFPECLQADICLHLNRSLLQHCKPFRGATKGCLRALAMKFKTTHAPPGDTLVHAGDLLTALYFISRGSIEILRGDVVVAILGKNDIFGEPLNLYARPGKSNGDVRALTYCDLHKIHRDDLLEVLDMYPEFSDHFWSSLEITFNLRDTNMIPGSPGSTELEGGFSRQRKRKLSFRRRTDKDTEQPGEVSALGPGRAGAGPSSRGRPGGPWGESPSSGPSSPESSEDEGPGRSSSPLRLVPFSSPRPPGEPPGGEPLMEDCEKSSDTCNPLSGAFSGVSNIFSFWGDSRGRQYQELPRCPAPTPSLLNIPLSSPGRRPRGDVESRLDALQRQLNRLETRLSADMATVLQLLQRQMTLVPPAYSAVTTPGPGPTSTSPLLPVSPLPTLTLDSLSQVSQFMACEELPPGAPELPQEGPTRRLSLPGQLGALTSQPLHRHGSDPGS

As to `COc1cc(C(F)(F)F)ccc1COc1cccc(-c2cc(F)c(Cc3nc4ccc(C(=O)O)cc4n3C[C@@H]3CCO3)c3c2OCC3)n1` [Compound 71, (S)-2-((5-fluoro-7-(6-((2-methoxy-4-(trifluoromethyl)benzyl)oxy)pyridin-2-yl)-2,3-dihydrobenzofuran-4-yl)methyl)-1-(oxetan-2-ylmethyl)-1H-benzo[d]imidazole-6-carboxylic acid], the EC50 (usually the concentration at which the effect is half-maximal) in data set [1] is at most 1 nM. Also, the “EC50 of Positive reference / EC50 of Compound of the Present Application” value in data set [1] (Positive reference is PF-06882961) is on record as “Ratio ≥10”. The half-inhibitory concentration (IC50) (as a rule, the point on the concentration scale where inhibition reaches its midpoint) in data set [2] (human, CHO-hERG-DUO cells stably expressing hERG) was above 30 µM.

In the case of `COc1cc(C(=O)O)cc2c1nc(Cc1c(F)cc(-c3cccc(OCc4ccc(Cl)cc4OC(F)F)n3)c3c1CCO3)n2CC1(CF)CC1` [Compound 87, 2-((7-(6-((4-Chloro-2-(difluoromethoxy)benzyl)oxy)pyridin-2-yl)-5-fluoro-2,3-dihydrobenzofuran-4-yl)methyl)-1-((1-(fluoromethyl)cyclopropyl)methyl)-4-methoxy-1H-benzo[d]imidazole-6-carboxylic acid], the EC50 in data set [1] is at most 1 nM. Moreover, the area under the curve AUC(0-t) – broadly, the area under the concentration-time curve up to a stated or last time point – in data set [3] was determined as 12200 ng·h/mL. For the same compound, the 50% inhibitory concentration (IC50) in data set [2] (CHO-hERG-DUO cells) was above 30 µM.
